The data set in a line: gradient 5% acetonitrile 3 min, to 50% in 2 min, to 85% in 15 min, held 3 min, 100 µL/min. As to conditions: column: Zorbax Extend-C18 2.1 x 50 mm; eluents: water / acetonitrile, 0.1% formic acid. Put shortly: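 Standards, all pure, were combined into mixtures of ~100 molecules and run at 100 μL/min on a Zorbax Extend-C18 column (2.1 × 50 mm, 1.8 μm) with water and acetonitrile, each containing 0.1% formic acid. A coupled quadrupole time-of-flight mass spectrometer operated in positive and negative ionization mode. Retention time values come from computationally picked adduct peaks, each inspected manually.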
`Cc1csc(-c2cc(S(=O)(=O)N3CCN(C)CC3)cn2CC(=O)N2CCCCC2)n1`: the RP-LC retention time is 654 s.
The same measure for `Cn1c(=O)c(N2CCC(NC(=O)Nc3ccc(Cl)cc3)CC2)nc2ccccc21`: 904 s; for `O=C(c1ccc(OCC2CCN(C(=O)c3ccsc3)CC2)cc1)N1CCOCC1`: 678 s; for `COc1cccc(-n2c(N3CCC(C(=O)NCC4CC4)CC3)nc3ccsc3c2=O)c1`: 745 s.
The same measure for `CCCn1c(=O)c(N2CCC(NC(=O)NCc3cccc(F)c3)CC2)nc2ccccc21`: 959 s.
The figure for `COc1cccc(C(=O)Nc2cccc(-c3nc4ncccc4o3)c2)c1` is 781 s; for `CCOC(=O)c1cccc(NC(=O)C2CCCN(C(=O)C3Sc4ccccc4NC3=O)C2)c1` (centres undefined) it is 851 s; for `Cc1nc(-c2cc(S(=O)(=O)N3CCN(c4ccccc4Cl)CC3)c(C)s2)cs1` it is 1240 s.
`CCc1nnc(-c2cn(CC(=O)NCc3ccc(C)o3)c3ccccc23)o1` gave an RP-LC retention time of 740 s.
Turning to `COc1ccc(-c2nccc(C3CCCN(C(=O)c4ccccc4)C3)n2)cc1` (centres undefined), the RP-LC retention time stood at 967 s.
The compound `O=C(Nc1cccc(-c2nnc3n2CCCC3)c1)c1ccsc1` gave an RP-LC retention time of 659 s.
The figure for `O=C(c1cc2c(s1)CCC(C(=O)N1CCN(c3ccccn3)CC1)C2)N1CCOCC1` (centres undefined) is 582 s.
The same measure for `COc1cccc(NS(=O)(=O)c2c(C)nn(-c3ccc(-c4ccc(C)cc4)nn3)c2C)c1`: 1080 s; for `CCn1c(C(=O)N2CCN(c3cccc(C)c3C)CC2)cc2sccc21`: 1070 s; for `Cc1ccc2c(c1)C(=O)C1(O)CCN(c3ccccc3)C1=N2` (centres undefined): 646 s.
The figure for `COC(=O)c1c(-c2ccc(Cl)cc2)noc1NCCN1CCN(C)CC1` is 660 s; for `CCc1cccc(NC(=O)c2c(C)oc3nc(C)nc(N4CCCC4)c23)c1` it is 861 s; for `c1coc(-c2nnc(Nc3nc4cc5c(cc4s3)OCO5)o2)c1` it is 694 s.
`CCN1c2cc(F)ccc2C(=O)NC12CCN(C(=O)c1cccc(F)c1)CC2` yielded an RP-LC retention time of 791 s.
`Fc1ccc(OCc2nn3c(CSc4ccccc4)nnc3s2)cc1` had an RP-LC retention time of 966 s.
For the compound `O=S(=O)(c1ccc(F)cc1)N1[C@H]2CC[C@@H]1c1cncnc1C2`, the RP-LC retention time came to 709 s.
The figure for `COc1ccc(CN2C(=O)[C@H](OC)[C@@H]2C2=CCNCC2)cc1` is 576 s; for `Cc1ccc(-c2cc3c4nn(CC(=O)NC5CCCCC5)c(=O)n4ccn3n2)cc1C` it is 980 s.
The figure for `Nc1nc(-c2ccc(F)cc2)nn1C(=O)c1ccc(F)cc1` is 969 s; for `O=C(CSc1ccc(N2CCCC(C(=O)NC3CC3)C2)nn1)NCCc1ccc(Cl)cc1` (centres undefined) it is 666 s.
The same measure for `COc1cc(Cl)c(NS(=O)(=O)c2cc(-c3cc(C(F)(F)F)[nH]n3)sc2C)c(OC)c1`: 1030 s; for `COC(=O)C1=CN(C2CC2)c2cc(N3CCN(c4ccccc4OC)CC3)c(F)cc2S1(=O)=O`: 904 s; for `COc1cc(Cl)ccc1C(=O)Nc1ccc2c(c1)Sc1ncccc1C(=O)N2C`: 915 s.
Regarding `CCCS(=O)(=O)N1CCCN(C2=NS(=O)(=O)C(c3ccc(C)cc3)=C2C)CC1`, the RP-LC retention time was 874 s.
The same measure for `COc1ccc(CNC(=O)c2cc3c(s2)N(C)CCC3)c(OC)c1`: 926 s; for `O=c1c2cnn(-c3ccc(F)cc3)c2ncn1Cc1nc(-c2cccc(Br)c2)no1`: 1130 s; for `CCc1cc(C(=O)Nc2ccc(C)cc2C)nc2ccnn12`: 1090 s.
The same measure for `CSc1cccc(NC(=O)CSc2ccc(N3CCCC(C(=O)NC4CC4)C3)nn2)c1` (centres undefined): 682 s; for `COc1ccc(-c2nc(-c3cn(Cc4ccc(F)cc4)nn3)no2)cc1OC`: 914 s.
The figure for `O=C(c1ccco1)N1CCC(n2c(C3CCCC3)nc3cccnc32)C1` (centres undefined) is 625 s; for `CC(NC(=O)CN1C(=O)CCn2nc(-c3cn(C)c4ccccc34)cc21)c1ccc2c(c1)OCCO2` (centres undefined) it is 797 s; for `Cc1onc(-c2ccccn2)c1C(=O)NCCc1c[nH]c2ccc(Cl)cc12` it is 1000 s.
The compound `O=C(Nc1nc(-c2nc3ccccc3s2)cs1)c1ccc([N+](=O)[O-])s1` showed an RP-LC retention time of 1020 s.
The same measure for `O=C(Nc1ccc(N2CCN(Cc3ccc(F)cc3)C2=O)nc1)c1cccs1`: 570 s; for `CC(C)N(Cc1ccccc1)C(=O)c1cc2c(=O)n3ccccc3nc2n1C`: 884 s; for `CCCNC(=O)C1CCCN(c2nc3ncn(CC(=O)Nc4ccc(C(C)C)cc4)c(=O)c3s2)C1` (centres undefined): 801 s.
Compound `Cc1ccc(NS(=O)(=O)c2n[nH]c(C)c2C(=O)NCCc2cccs2)cc1` came in with an RP-LC retention time of 912 s.
Compound `CCC(=O)N1CCc2c([nH]c3ccccc23)C12C(=O)Nc1ccc(Br)cc12` (centres undefined) gave an RP-LC retention time of 882 s.
The same measure for `O=C(NCc1ccccn1)C(=O)Nc1nccs1`: 527 s; for `Cc1nc(-c2noc(-c3ccccc3)n2)cn1CC(=O)Nc1ccc2c(c1)OCO2`: 803 s.
The figure for `COC(=O)c1ccc2c(=O)n(-c3ccc(C)c(C)c3)c(N3CCN(c4ccccn4)CC3)nc2c1` is 756 s.
The figure for `CCC(=O)Nc1cccn2nc(CC)nc12` is 657 s; for `CC(C)NC(=O)c1ccc(OCC2CCCN(C(=O)C(C)C)C2)cc1` (centres undefined) it is 787 s.
`CCc1ccc(NC(=O)NCCn2c(-c3ccncc3)nc3cccnc32)cc1` displayed an RP-LC retention time of 623 s.
With `O=C(NCc1cccs1)c1ccc(-n2nc(N3CCCC3)ccc2=O)cc1`, the RP-LC retention time stood at 765 s.
The same measure for `O=C1CCN(C(=O)C2CCN(C(=O)c3cccs3)CC2)CCCCCCN1`: 639 s; for `CC(C)NC(=O)c1cc(-c2ccc(F)cc2)cn1C`: 926 s; for `Cn1nc(-c2nnc(-c3ccc(F)cc3)o2)c2c1CCN(S(=O)(=O)c1ccccc1Cl)C2`: 990 s.
The same measure for `COc1ccc(-c2noc(C3CCCN(S(=O)(=O)c4ccc(C)cc4)C3)n2)cc1OC` (centres undefined): 993 s; for `COc1ccc(Cn2cc(S(=O)(=O)N3CCCCC3)ccc2=O)cc1`: 888 s; for `CCOC(=O)c1cn(Cc2ccccc2C)c2nc(C)ccc2c1=O`: 909 s.
The same measure for `COC(=O)c1cccc(-c2nc(-c3nnn(Cc4ccccc4)c3C)no2)c1`: 1010 s; for `O=C(NC1CCCCC1)C1CCN(C(=O)c2cccn2-c2cccnc2)CC1`: 673 s.
The compound `Cc1ccc(NC(=O)Cn2nc(N3CCOCC3)c3ccccc3c2=O)c(Cl)c1` displayed an RP-LC retention time of 871 s.
The same measure for `Cc1ccc(C)c(C(=O)Nc2cccn3nc(C(C)C)nc23)c1`: 1010 s.
Compound `Cc1cc(C)n(-c2ccc(N3CCN(C(=O)c4ccc(S(N)(=O)=O)cc4)CC3)nn2)n1` had an RP-LC retention time of 620 s.
The figure for `CCCN1CCN(CCNc2nnc(-c3nc(C4CC4)no3)c3ccccc23)CC1` is 597 s; for `COc1ccc(-c2nc(-c3cn(Cc4cccc(F)c4)nn3)no2)cc1` it is 983 s; for `Cc1ccc(-c2noc(-c3ccccc3S(=O)(=O)N3CC=C(c4ccccc4)CC3)n2)cc1` it is 1350 s.
With `C=CCN(Cc1nc(-c2cccc(C)c2)no1)C(=O)Nc1ccccc1C`, the RP-LC retention time stood at 1080 s.
The figure for `Cc1ccc(-c2csc(NC(=O)c3cccs3)n2)cc1C` is 1180 s; for `Cc1nn2c(CNS(=O)(=O)Cc3ccccc3)c(-c3ccccc3)nc2s1` it is 876 s; for `O=C(C1CCOC1)N1CCC(CCOc2cccc(F)c2)CC1` (centres undefined) it is 834 s.
The same measure for `COc1ccc(OC)c(S(=O)(=O)N2CCc3nn(CC4CC4)c(=O)n3CC2)c1`: 598 s; for `CCCn1c(=O)c2c(ncn2C)n(CCC)c1=O`: 785 s; for `CCOC(=O)c1c(C)[nH]c(C(=O)N2CCC(CC(=O)NC(C)c3ccccc3)CC2)c1C` (centres undefined): 780 s.
The figure for `Cc1ccc(-n2cccc2CC(=O)NCc2ccc3c(c2)OCO3)cc1` is 946 s.
On to `Cc1cnc(C2CN(Cc3cccc(F)c3)C2)n1CC1CC1`, for which the RP-LC retention time is 554 s.
For the compound `CCCCNC(=O)c1cn(-c2cc(-c3nc(C)no3)ccn2)cn1`, the RP-LC retention time stood at 779 s.
As to `CCc1cccc(NC(=O)CCc2c(C)nc3nc(-c4cc(OC)cc(OC)c4)nn3c2C)c1`, the RP-LC retention time amounted to 970 s.
In the case of `COCCCNC(=O)C1CCCN(c2nccc(C)n2)C1` (centres undefined), the RP-LC retention time was 592 s.
The same measure for `Cc1noc(C)c1C(=O)N1CCCC1Cc1noc(C2CCCC2)n1` (centres undefined): 820 s; for `CCN1C(=O)C(CC(=O)NCCCOC)Sc2ncccc21` (centres undefined): 620 s.
The figure for `Cc1c(C(=O)N2CCOc3ccc(-c4ccc(N)nc4)cc3C2)ccc(S(C)(=O)=O)c1F` is 643 s.

Values taken from the METLIN SMRT retention time set (Domingo-Almenara et al. 2019).
